Measured values published in US20240099298A1, “BIOINSECTICIDAL COMPOSITIONS CONTAINING MONOTERPENES AND METHODS OF USE THEREOF” (priority 2017, published 2024).
≈ marks a conversion by molar mass, not a printed value. Where “and” joins values, the source holds several entries; their conditions need not be identical. Equal values may be shown once. Read-outs that look alike come from different tables or passages of the source.

Experiments:
[1] = test system: Drosophila melanogaster (fruit fly); experiment: Median lethal concentration fumigation test, fruit fly; format: in vivo; details: mortality after 280 minutes
[2] = test system: Thrips Megalurothrips usitatus; details: 24-hour fumigation assay, 0-0.192 μL/dm^3
[3] = test system: T. castaneum (red flour beetle); experiment: Median lethal time (LT50) test, red flour beetle; format: in vivo, Tribolium castaneum
From the text: (§1) All treatments and controls were in triplicate.
(§2) Toxicity of Monoterpenes as Fumigants. […] Therefore, to determine how fast the monoterpenes act as fumigants, it was necessary to determine their LT50 values for the target organisms.

[4] = test system: B. cucuribitae (melon fly); experiment: Median lethal time (LT50) test, melon fly; format: in vivo, Bactrocera cucuribitae
From the text: as §1, §2

[5] = T 25 °C; cited from earlier work
[6] = target: T1, recombinant gamma-aminobutyric acid receptor-associated protein (rGABARAP) (Frankliniella occidentalis, UniProt A0A6J1T1Q2); experiment: Microscale thermophoresis (MST) binding to rGABARAP
From the text: (§3) Preparation of recombinant GABARAP (rGABARAP) protein. RNA was extracted from F. occidentalis and cDNA was then synthesized. GABARAP (GenBank accession No. LOC113211372) was obtained after PCR amplification (Stafford-Banks, et al. (2014) Plos One 9:e94447).
(§4) Interaction between ME and rGABARAP. A Nano Temper Monolith NT.115 MST system (Nano Temper, Munich, Germany) was used to assess the binding affinities between the target compounds and rGABARAP according to the published procedures (Zan, et al. (2020) Journal of Agricultural and Food Chemistry 68:6280-6285). Spinosyn A was used as a chemical positive control. Spinosyn A (≥1 nM) can trigger a change of the Cl^− current of insect neuron GABAAR, which is considered to be an insecticidal action mechanism of spinosyn A (Watson (2001) Pesticide Biochemistry and Physiology 71:20-28). Ovalbumin (OVA) (Sangon Biotech, Shanghai, China) is a control protein consisting of 385 amino acid residues. The interaction between OVA and ME was used as a protein control experiment (Huntington, et al. (1995) Protein Science 4:613-621).

[7] = test system: Aedes aegypti (mosquito); experiment: Median knockdown concentration (KC50) test, mosquito; format: in vivo
From the text: as §1
(§5) Knockdown Activity of Monoterpenes.

[8] = test system: Megalurothrips usitatus (flower Thrips); details: adult M. usitatus, 24 hours of fumigation in 1-L flasks
[9] = test system: T. chilonis (parasitic wasp); details: non-target parasitic wasp, mortality after 15 minutes of exposure
From the text: (§6) Insect Egg Parasitic Wasp (Natural Enemy). […] Both species were purchased from a commercial source. One- to two-day-old adults (after eclosion) were used for fumigation tests.
(§7) Median Lethal Concentration Tests. […] The species tested included Thrips (M. usitatus), spider mite (T. cinnabarinus), melon fly (B. cucuribitae), cockroach (B. lateralis), housefly (M. domestica), mosquito (A. aegypti), parasitic wasp (T. chilonis) and fruit fly (Drosophila melanogaster). After being exposed to the test chemicals for one hour, adult Thrips, spider mites, and roaches were transferred to another flask. In addition to fresh water, adult Thrips, spider mites, and roaches were then respectively fed with cowpea, fresh blade of eggplant, and peanut oil via filter. […] Mortality of melon fly was observed after three hours of exposure.

[10] = test system: Bactrocera cucuribitae (Coquillett) (melon fly)
From the text: as §7

[11] = test system: Tetranychus cinnabarinus (Boisduval) (spider mites)
From the text: as §7

[12] = test system: Blatta lateralis (Walker) (cockroach)
From the text: as §7

[13] = test system: Musca domestica (Linnaeus) (housefly)
From the text: as §7

[14] = test system: Aedes aegypti (Linnaeus) (mosquito)
From the text: as §7

[15] = test system: H. picinus (Nitidulid beetle); experiment: Median lethal time (LT50) test, Nitidulid beetle; format: in vivo, Haptoncus picinus
From the text: as §1, §2

[16] = test system: A. japonicus (parasitic wasp); experiment: Median lethal time (LT50) test, parasitic wasp (natural enemy)
Method: as §6
Median Lethal Time (LT50) and Median Knockdown Concentration (KC50) Tests. Five species of adult insects or natural enemies were tested for LT50 values including melon fly (B. cucuribitae), red flour beetle (T. castaneum), Nitidulidae beetle (H. picinus), parasitic wasp (A. japonicus) and housefly (M. domestica). For each treatment and control, 20 insects at the developmental stages described above were placed individually without food in a 1-L wide-mouth glass bottle (height 19.5 cm, bottom diameter 10.5 cm, mouth i.d. 5.5 cm) containing pieces of tissue paper. […] Five different concentrations of the test chemicals were placed on pieces of cellulose-based qualitative filter paper. Each of the filter papers was placed in a bottle to have 5 appropriate concentrations in serial dilutions. DDVP was the positive control, and no chemical treatments were the negative control. All treatments and controls were in triplicate. Mortality was observed periodically in a 10-30 minute interval for 2 days or until all insects died. The death was defined as no movement when the insects were touched.

[17] = test system: honeybee Apis mellifera; experiment: 24-hour fumigation assay on honeybee; details: for Mortality ± STD: 60 bees; for toxicity to honeybee (in words): 24-hour fumigation
From the text: Experiments were done with 20 bees per group in triplicate.
Activity of Monoterpenes Against Honeybees. The honeybee (Apis mellifera) is the most frequent floral visitor of crops worldwide.

[18] = test system: Megalurothrips usitatus (Bagrall) (thrips); experiment: Median lethal concentration fumigation test, thrips
From the text: as §7

[19] = test system: Musca domestica (housefly); experiment: Median knockdown concentration (KC50) test, housefly; format: in vivo; details: Musca domestica
From the text: as §1, §5

[20] = test system: adult T. palmi; details: cited from earlier work
[21] = target: T2, rGABARAP^Y174A (Frankliniella occidentalis, UniProt A0A6J1T1Q2); experiment: MST binding to rGABARAP mutant; details: for Kd: read-out: Kd value, MST
Method: as §4
(§8) Preparation of rGABARAP Mutant and Interaction Between ME and rGABARAP Mutant. […] DNAman was used to convert the nucleic acid sequence into an amino acid sequence and find the Y174 site. Y174 was mutated to A174. The rGABARAP mutant gene loaded into the pMCSG19 vector and the His tags at both ends of the sequence were retained to construct a prokaryotic expression plasmid. The carrier contained a maltose binding protein (MBP) tag that was not cut for verification. However, MBP and ME were used as treatment controls. The mutant plasmid was constructed in Sangon Biotech (Shanghai, China). The protein expression, purification, and desalting procedures of rGABARAP^Y174A mutant and rGABARAP were the same. Subsequently, the binding kinetics of ME and rGABARAP^Y174A were tested by MST and ITC.

[22] = target: T1, recombinant gamma-aminobutyric acid receptor-associated protein (rGABARAP); experiment: Isothermal titration calorimetry (ITC) binding to rGABARAP; details: 25° C., pH 7.4
Method: as §3
(§9) The isothermal titration thermal binding measurements were performed with an ITC-200 calorimeter (GE Healthcare, Boston, MA) at 25° C. in a buffer containing 50 mM Tris-HCl and 100 mM NaCl (pH 7.4). […] The MicroCal Origin 7.0 software system was used for data processing. The first run was a pre-run and was excluded from the final data. The amount of protein in the sample pool was constant. […] The experimental bimolecular interaction data from the 18 drops were used to calculate the dissociation constant. The dissociation constant […] was calculated as 1/K (Li, et al. (2018) RSC Advances 8:18952-18958).

[23] = target: T2, rGABARAP^Y174A; experiment: ITC binding to rGABARAP mutant
Method: as §9, §8

[24] = test system: Frankliniella occidentalis second-instar nymphs; experiment: whole plant or invertebrate; details: 24 h
Method: Chemicals. […] These monoterpenes and the positive control spinosyn A (Bosite Technology, Chongqing, China) were dissolved in acetone (10 g/L).
Insects. F. occidentalis Thrips were provided by the Institute of Vegetables and Flowers, Chinese Academy of Agricultural Sciences (Beijing, China), and kept in a box (19 cm×14 cm×20 cm) at 27±1° C., humidity of 50%-60% and a photoperiod of 16:8 h (light:dark). The population was established with sword beans (Canavalia gladiata). Second-instar nymphs with the same growth were tested.
Insect Assays. […] The leaf blade (2 cm×3 cm) was immersed in the solution for 10 s in the test solution, and then air-dried until there were no water drops on the surface. The concentrations were the same as those used in the insecticide-impregnated membrane method. After the chemical film had been formed for 2 h, the infusion leaves were placed in the bottles. The second-instar nymphs were picked with a soft writing brush to make up ten insects per bottle. The bottles were sealed with plastic wrap. 1% Triton X-100 (m/V) aqueous solution as a blank control. Each treatment was repeated four times. The bottles were placed under temperature of 27±1° C., humidity of 50%-60% and photoperiod of 16:8 h (light:dark). […] The insects were touched with a soft brush and numbers of dead and living Thrips were recorded, followed by calculation of the mortality rates.

[25] = test system: housefly adults; details: cited from earlier work
[26] = rGABARAP, read-out: Kd value, MST
[27] = adult thrips, exposed one hour, mortality observed in 24 hours

T2 sequence (A0A6J1T1Q2 entry or part of it, stated change not applied): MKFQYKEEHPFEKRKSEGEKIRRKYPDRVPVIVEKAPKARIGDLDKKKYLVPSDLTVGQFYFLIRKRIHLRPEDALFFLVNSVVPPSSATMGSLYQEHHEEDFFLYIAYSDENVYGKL
T1 sequence (A0A6J1T1Q2 1-118): as the sequence (A0A6J1T1Q2 entry or part of it, stated change not applied) above

## CC(C)=C1CC[C@@H](C)CC1=O [(+)-Pulegone]
[1]
  LC50 (fiducial limits): 0.043 ng/mL (≈ 0.000282 µM)
  LC90 (fiducial limits): 0.00014 µg/mL (≈ 0.00092 µM)
[2]
  LC50: 0.079 μL/dm^3
[3]
  LT50 (fiducial limits): 3.47 h
[4]
  LT50 (fiducial limits): 0.87 h
  fold faster action relative to the other five monoterpenes (LT50): at least 1.9 fold
[5]
  Vp (Pa)/T (° C.): 16.3/25 Pa
[6]; [26]
  Kd: 1.72 µM
[7]; 10 Minutes
  KC50 (fiducial limits): 19.6(8.41-35.5) μg/cm^3
[7]; 20 Minutes
  KC50 (fiducial limits): 1.40 µg/mL
[7]; 30 Minutes
  KC50 (fiducial limits): 1.4 µg/mL
[8]
  activity against flower Thrips in preliminary screening: exhibit insecticidal activity
[9]
  LC50 (fiducial limits) against T. chilonis: 2.02 µg/mL and 2.06 µg/mL
  LC90 (fiducial limits) against T. chilonis: 12.1 µg/mL (≈ 79.5 µM)
[10]; in vivo
  LC50 (fiducial limits): 112 µg/mL (≈ 736 µM)
[10]; melon fly
  LC90 (fiducial limits): 657 µg/mL (≈ 4320 µM)
[11]; in vivo
  LC50 (fiducial limits): 2.52 µg/mL (≈ 16.6 µM)
[11]; spider mites, exposed one hour
  LC90 (fiducial limits): 40.8 µg/mL (≈ 268 µM)
[12]; cockroach second instar nymphs, exposed one hour
  LC90 (fiducial limits): 173 µg/mL (≈ 1140 µM)
[12]; in vivo
  LC50 (fiducial limits): 15.0 µg/mL (≈ 98.5 µM)
[13]; adult housefly, exposed one hour, mortality in 24 hours
  LC90 (fiducial limits): 11.9 µg/mL (≈ 78.2 µM)
[13]; in vivo
  LC50 (fiducial limits): 7.38 µg/mL (≈ 48.5 µM)
[14]; adult mosquito, exposed 30 minutes, mortality in 24 hours
  LC90 (fiducial limits): 16.8 µg/mL (≈ 110 µM)
[14]; in vivo
  LC50 (fiducial limits): 10.3 µg/mL (≈ 67.7 µM)
[15]
  LT50 (fiducial limits): 0.50 h
  fold faster action relative to the other five monoterpenes (LT50): ≥ 1.2 fold
[15]; listed as (+)-pulegone
  LT50 (fiducial limits): 0.500 h
[16]; A. japonicus
  LT50 fold greater than that of DDVP: approximately 1.2 fold
[16]; non-target parasitic wasp
  LT50 (fiducial limits) against A. japonicus: 0.47 (0.00-0.68) hour
[17]; 0.012 μL/dm^3, 24-hour fumigation
  Mortality ± STD: 5.0 ± 8.7%
[17]; 0.024 μL/dm^3, 24-hour fumigation
  Mortality ± STD: 3.3 ± 5.8%
[17]; 0.048 μL/dm^3, 24-hour fumigation
  Mortality ± STD: 5.0 ± 5.0%
[17]; 0.096 μL/dm^3, 24-hour fumigation
  Mortality ± STD: 5.0 ± 5.0%
[17]; 0.192 μL/dm^3, 24-hour fumigation
  Mortality ± STD: 8.3 ± 7.6%
[17]; 0.2 μL/dm^3, 24-hour fumigation
  mortality relative to no chemical control: 3%
[17]
  toxicity to honeybee (in words): little lethal toxicity
[17]; listed as (+)-pulegone
  toxicity to honeybee (in words): failed to have a negative impact
[18]; [27]
  LC50 (fiducial limits): 0.20 µg/mL (≈ 1.31 µM)
  LC90 (fiducial limits): 0.67 µg/mL (≈ 4.4 µM)
[18]; adult thrips, exposed one hour, mortality observed in 24 hours, listed as (+)-pulegone
  LC50 (fiducial limits): 0.196 µg/mL (≈ 1.29 µM)
[18]; thrips
  activity fold greater (smaller LC50) than positive control DDVP: 3.5 fold
[19]; 20 Minutes
  KC50 (fiducial limits): >243 µg/mL
[19]; 30 Minutes
  KC50 (fiducial limits): 12.2 µg/mL

## CC(C)=C1CC[C@H](C)CC1=O [(−)-Pulegone]
[1]
  LC50 (fiducial limits): 0.106 ng/mL (≈ 0.000696 µM)
  LC90 (fiducial limits): 0.000359 µg/mL (≈ 0.00236 µM)
[2]
  LC50: 0.119 μL/dm^3
[5]
  Vp (Pa)/T (° C.): 16.3/25 Pa
[6]; [26]
  Kd: 2.53 µM
[20]
  LC50, fumigation toxicity: 9.5 µg/mL (≈ 62.4 µM)

## C/C=C/c1ccc(OC)cc1 [Anethole, 1-(4-methoxyphenyl) -1-propen]
[21]
  Kd: 41 ± 36.4 µM
[6]; [26]
  Kd: 1.61 µM
[22]
  Kd: 4.49 µM
[23]
  Kd value, ITC: No binding

## COc1cccc2c1cc([N+](=O)[O-])c1c(C(=O)O)cc3c(c12)OCO3 [Aristolochic acid A, 3,4-methylenedioxy-8-methoxy-10-nitro-1-phenanthrenecarboxylicacid, reference compound]
[21]
  Kd: 158 ± 82 µM
[6]
  Kd: 146 µM
[22]
  Kd value, ITC: no binding
[23]
  Kd value, ITC: No binding
[24]
  LC50: 40 µg/mL (≈ 117 µM)

## C=CCc1ccc(OC)c(OC)c1 [Eugenol methyl ether, 1-(3,4-dimethoxyphenyl) -2-propene]
[21]
  Kd value, MST: loss of binding
[6]; [26]
  Kd: 1.3 µM
[22]
  Kd: 4.22 µM
[8]
  activity against flower Thrips in preliminary screening: exhibit insecticidal activity
[23]
  Kd value, ITC: neither MBP nor ME interacted

## CC1CCC(C(C)C)C(O)C1 (centres unmarked) [menthol]
[25]
  repellent activity: 96%

## CC(C)[C@@H]1CC[C@@H](C)CC1=O [menthone]
[25]
  repellent activity: 83%
